The values that follow come from ChEMBL document CHEMBL1201862, “PubChem BioAssay data set” (2004).

Test systems include IGROV-1; SR; MDA-N; HT-29; KM12; M14; TK-10; Malme-3M; A498; HCT-15; PC-3; UO-31; NCI/ADR-RES; CCRF-CEM; Hs-578T; HCT-116; SNB-19; CAKI-1; UACC-62; HOP-62.
Common to all, as to assay: NCI anticancer screen, dose series, 48 h

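96-well plates; 48 h exposure; 5 concentrations. Endpoints by linear interpolation between flanking doses. Not reached: highest tested concentration assigned. Here, GI50 denotes the concentration required for 50% inhibition of growth.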 Active and inactive are the calls of the source. Rule as the data show it: active = GI50 up to about 1.1 µM and inactive = higher.

In the case of `COC(=O)c1oc([N+](=O)[O-])c(Cl)c1Cl`, the GI50 is 7.67 µM (inactive) in the assay with IGROV-1; 2.08 µM (inactive) in the assay on SR; 7.98 µM (inactive) in the assay on MDA-N; 16.5 µM (inactive) in the assay on HT-29; 5.83 µM (inactive) with KM12; 7.28 µM (inactive) with M14. Further, the GI50 with TK-10 was 7.36 µM (inactive); in the assay on Malme-3M, 7.43 µM (inactive); in the assay with A498, 15.1 µM (inactive); with HCT-15, 7.57 µM; with PC-3, 8.34 µM (inactive); in the assay on UO-31 it was 8.07 µM (inactive). For the same molecule, the GI50 in the assay on NCI/ADR-RES is 13.4 µM (inactive); with CCRF-CEM, 2.21 µM (inactive); in the assay with Hs-578T it was 11.4 µM (inactive); in the assay with HCT-116, 6.24 µM (inactive); in the assay on SNB-19, 18.7 µM (inactive); in the assay on CAKI-1, 2.44 µM (inactive). In addition, the GI50 is 8.47 µM (inactive) in the assay with UACC-62 and 8.71 µM (inactive) in the assay on HOP-62.
Regarding `CC1=C[C@H](C[C@]2(C)c3c(c4c(C)cccc4oc3=O)O[C@@H]2C)OC1=O`, the GI50 with IGROV-1 is > 100 µM (inactive); in the assay on SR, 22.4 µM (inactive); with MDA-N it was 36.6 µM (inactive); with HT-29 it was 35.6 µM (inactive); in the assay with KM12, > 100 µM (inactive); in the assay on M14, 66.1 µM (inactive). In addition, the GI50 in the assay on TK-10 is > 100 µM (inactive); in the assay with Malme-3M it was 29.9 µM (inactive); in the assay on A498 it was > 100 µM (inactive); with HCT-15, 18.3 µM; with PC-3 it was > 100 µM (inactive); with UO-31 it was 32.5 µM (inactive). Also, the GI50 was 20.1 µM (inactive) in the assay with NCI/ADR-RES; 19.3 µM (inactive) in the assay with CCRF-CEM; 63.1 µM (inactive) with Hs-578T; 15.7 µM (inactive) with HCT-116; > 100 µM (inactive) in the assay with SNB-19; > 100 µM (inactive) in the assay with CAKI-1. Moreover, the GI50 in the assay on UACC-62 is 73.1 µM (inactive); in the assay on HOP-62, > 100 µM (inactive).
With `CC1(C)OCC(C2OC(C)(C)OC2[C@H]2O[C@@]3(O)[C@H]4[C@H](C=CC[C@@H]42)[C@@H](OCc2ccccc2)[C@H](OCc2ccccc2)[C@H]3OCc2ccccc2)O1` (stereo not given in full), the GI50 in the assay with IGROV-1 is 71 µM (inactive); in the assay with SR, 11 µM (inactive); with MDA-N, 17.9 µM (inactive); with HT-29 it was 17.9 µM (inactive); in the assay with KM12, 47.4 µM (inactive); with M14, 59.3 µM (inactive). Besides, the GI50 was 32.4 µM (inactive) in the assay with TK-10; > 100 µM (inactive) in the assay with Malme-3M; > 100 µM (inactive) in the assay on A498; 21.9 µM in the assay with HCT-15; 31 µM (inactive) with PC-3; 31 µM (inactive) in the assay with UO-31. Moreover, the GI50 in the assay with NCI/ADR-RES is 28.6 µM (inactive); in the assay on CCRF-CEM, 8.63 µM (inactive); in the assay with Hs-578T it was > 100 µM (inactive); with HCT-116, 16.1 µM (inactive); with SNB-19, 63.7 µM (inactive); in the assay on CAKI-1, 79.1 µM (inactive). In addition, the GI50 in the assay with UACC-62 is 19.3 µM (inactive); in the assay on HOP-62, > 100 µM (inactive).
With `O=C1c2sccc2C(=O)c2c(CO)csc21`, the GI50 is 4.03 µM (inactive) in the assay on IGROV-1; 3.42 µM (inactive) in the assay on SR; 1.72 µM (inactive) in the assay with MDA-N; 3.3 µM (inactive) in the assay with HT-29; 5.02 µM (inactive) in the assay on KM12; 2.21 µM (inactive) with M14. Moreover, the GI50 is 7.05 µM (inactive) in the assay with TK-10; 1.91 µM (inactive) with Malme-3M; 13.7 µM (inactive) in the assay on A498; 2.49 µM with HCT-15; 3.32 µM (inactive) in the assay on PC-3; 7.76 µM (inactive) with UO-31. In addition, the GI50 with NCI/ADR-RES is 3.63 µM (inactive); in the assay with CCRF-CEM it was 3.37 µM (inactive); with Hs-578T, 4.17 µM (inactive); in the assay with HCT-116 it was 3.04 µM (inactive); in the assay with SNB-19 it was 5.56 µM (inactive); with CAKI-1 it was 15.1 µM (inactive). Also, the values for the GI50 in the assay with UACC-62 and in the assay on HOP-62 were 2.52 µM (inactive) and 4.71 µM (inactive), respectively.
Regarding `CC12CCC(C1)C(C)(C)C2OC(=O)c1ccccc1N` (stereo not given), the GI50 is 25.8 µM (inactive) in the assay on IGROV-1; 8.24 µM (inactive) in the assay with SR; 15.5 µM (inactive) with MDA-N; 14.9 µM (inactive) in the assay on HT-29; 16.3 µM (inactive) in the assay with KM12; 16.6 µM (inactive) with M14. For the same molecule, the GI50 in the assay with TK-10 was 16.9 µM (inactive); with Malme-3M it was 13.4 µM (inactive); with A498, 15.2 µM (inactive); in the assay on HCT-15, 15.9 µM; with PC-3 it was 14.3 µM (inactive); with UO-31, 17 µM (inactive). Moreover, the GI50 is 16.6 µM (inactive) with NCI/ADR-RES; 0.678 µM (active) in the assay with CCRF-CEM; 15.6 µM (inactive) in the assay with Hs-578T; 13.5 µM (inactive) in the assay on HCT-116; 17.2 µM (inactive) with SNB-19; 15.2 µM (inactive) in the assay on CAKI-1. For the same molecule, the GI50 was 15.5 µM (inactive) in the assay with UACC-62 and 16.9 µM (inactive) in the assay with HOP-62.
For the molecule `Nn1c(-c2ccccc2)n[nH]c1=O`, the GI50 in the assay on IGROV-1, in the assay on SR, in the assay with MDA-N, with HT-29, with KM12 and with M14 was > 100 µM (inactive) each time. In addition, the GI50 in the assay with TK-10 was > 100 µM (inactive); in the assay on Malme-3M, 80.2 µM (inactive); in the assay on A498, > 100 µM (inactive); in the assay on HCT-15, over 100 µM; with PC-3 it was > 100 µM (inactive); in the assay on UO-31, > 100 µM (inactive). Moreover, the GI50 in the assay with NCI/ADR-RES was > 100 µM (inactive); with CCRF-CEM, > 100 µM (inactive); with Hs-578T it was 58.3 µM (inactive); in the assay on HCT-116, > 100 µM (inactive); with SNB-19, > 100 µM (inactive); in the assay on CAKI-1, > 100 µM (inactive). Moreover, the GI50 in the assay with UACC-62 and with HOP-62 was > 100 µM (inactive) each time.
For `[N-]=[N+]=Nc1c([N+](=O)[O-])c(=O)n2c3c(cccc13)CCC2`, the GI50 was 20.8 µM (inactive) with IGROV-1; 2.27 µM (inactive) with SR; 14.4 µM (inactive) in the assay with MDA-N; 15 µM (inactive) in the assay with HT-29; 17 µM (inactive) with KM12; 10.8 µM (inactive) with M14. The GI50 was 20 µM (inactive) in the assay with TK-10; 1.62 µM (inactive) with Malme-3M; 27 µM (inactive) with A498; 6.44 µM with HCT-15; 16.9 µM (inactive) in the assay with PC-3; 15.2 µM (inactive) in the assay with UO-31. The GI50 was 20.6 µM (inactive) in the assay with NCI/ADR-RES; 1.97 µM (inactive) with CCRF-CEM; 26.2 µM (inactive) with Hs-578T; 15.6 µM (inactive) in the assay on HCT-116; > 67.8 µM (inactive) in the assay on SNB-19; 13.2 µM (inactive) in the assay on CAKI-1. The GI50 in the assay with UACC-62 was 14 µM (inactive); with HOP-62 it was > 100 µM (inactive).
`O=C1CCSCCC(=O)Nc2ccccc2N1`: the GI50 in the assay on IGROV-1, in the assay on SR, with MDA-N, in the assay on HT-29, with KM12 and in the assay on M14 was > 100 µM (inactive) each time. Also, the GI50 in the assay on TK-10 was > 100 µM (inactive); with Malme-3M it was > 100 µM (inactive); in the assay with A498, > 100 µM (inactive); in the assay on HCT-15 it was over 100 µM; in the assay on PC-3, > 100 µM (inactive); with UO-31, > 100 µM (inactive). Moreover, the GI50 in the assay on NCI/ADR-RES is > 100 µM (inactive); in the assay on CCRF-CEM, > 100 µM (inactive); with Hs-578T, 88.3 µM (inactive); with HCT-116, > 100 µM (inactive); with SNB-19, > 100 µM (inactive); with CAKI-1, > 100 µM (inactive). The GI50 with UACC-62 and in the assay with HOP-62 was > 100 µM (inactive) throughout.
Regarding `COC(=O)C(=O)C(C(=O)OC)C(=O)C(=O)Nc1c(Cl)cc([N+](=O)[O-])cc1Cl` (stereo not given), the GI50 in the assay on IGROV-1 is 44.9 µM (inactive); in the assay on SR, > 10 µM (inactive); in the assay on MDA-N it was > 100 µM (inactive); in the assay with HT-29 it was > 100 µM (inactive); with KM12, > 100 µM (inactive); with M14, > 100 µM (inactive). Moreover, the GI50 was 62.4 µM (inactive) in the assay with TK-10; > 100 µM (inactive) in the assay on Malme-3M; > 100 µM (inactive) with A498; 92.9 µM in the assay on HCT-15; > 100 µM (inactive) in the assay with PC-3; > 100 µM (inactive) with UO-31. Besides, the GI50 with NCI/ADR-RES is 72.8 µM (inactive); in the assay with CCRF-CEM, > 10 µM (inactive); in the assay with Hs-578T, 66.2 µM (inactive); in the assay with HCT-116, > 100 µM (inactive); in the assay with SNB-19 it was > 100 µM (inactive); with CAKI-1 it was > 100 µM (inactive). Also, the GI50 in the assay on UACC-62 is > 100 µM (inactive); in the assay on HOP-62, 37.1 µM (inactive).
Regarding `C=CCOC(=O)NC1C(OC(C)[C@@H](NC(=O)OCc2ccccc2)C(=O)OC(C)(C)C)OC(COC(C)=O)C(OC(C)=O)C1OC(C)=O` (stereo not given in full), the GI50 in the assay on IGROV-1 is > 100 µM (inactive); in the assay with SR, 79.8 µM (inactive); with MDA-N it was > 100 µM (inactive); in the assay with HT-29, > 100 µM (inactive); in the assay on KM12 it was > 100 µM (inactive); with M14 it was 46.1 µM (inactive). The GI50 was > 100 µM (inactive) with TK-10; > 100 µM (inactive) in the assay on Malme-3M; > 100 µM (inactive) in the assay with A498; over 100 µM in the assay with HCT-15; 47 µM (inactive) in the assay with PC-3; 17.2 µM (inactive) in the assay on UO-31. The GI50 in the assay with NCI/ADR-RES is 50.6 µM (inactive); in the assay on CCRF-CEM, 53.3 µM (inactive); in the assay with Hs-578T it was 72.4 µM (inactive); in the assay with HCT-116 it was > 100 µM (inactive); in the assay on SNB-19, > 100 µM (inactive); in the assay with CAKI-1, > 100 µM (inactive). In addition, the GI50 in the assay with UACC-62 and with HOP-62 was > 100 µM (inactive) in each case.
